One data set deals with T1, hCA II (Homo sapiens, UniProt P00918).
T1 construct: made in house
The data set is described as follows: stopped flow CO2 hydrase assay, CA II. The format is biochemical. The conditions noted are these: mean from 3 different assays, errors ±5–10%. How it is done:
(§1) An Applied Photophysics stopped-flow instrument was used for assaying the CA catalyzed CO2 hydration activity. Phenol red (at a concentration of 0.2 mM) was used as an indicator, working at the absorbance maximum of 557 nm, with 20 mM HEPES (pH 7.5) as buffer, and 20 mM Na2SO4 (for maintaining constant the ionic strength), following the initial rates of the CA-catalyzed CO2 hydration reaction for a period of 10–100 s. The CO2 concentrations ranged from 1.7 to 17 mM for the determination of the kinetic parameters and inhibition constants. For each inhibitor, at least six traces of the initial 5–10% of the reaction were used for determining the initial velocity. The uncatalyzed rates were determined in the same manner and subtracted from the total observed rates. Stock solutions of inhibitor (0.1 mM) were prepared in distilled–deionized water, and dilutions up to 0.01 nM were done thereafter with the assay buffer. Inhibitor and enzyme solutions were preincubated together for 45 min at room temperature prior to assay in order to allow for the formation of the E–I complex. The inhibition constants were obtained by non-linear least-squares methods using PRISM 3 and the Cheng–Prusoff equation, as reported earlier, representing the mean from at least three different determinations. […] All CA isoforms were recombinant ones obtained in-house, as reported earlier.

A further data set addresses T2, hCA XII (Homo sapiens, UniProt O43570).
T2 construct: made in house
Put plainly: stopped flow CO2 hydrase assay, CA XII. The format is biochemical. The following applies: for Selectivity index (SI) CA I/CA XII / Selectivity index (SI) CA II/CA XII: ratio between KI values; for Ki: stopped flow CO2 hydrase assay, mean from 3 different assays, errors ±5–10%. As to the method:
as §1

The nature of data set [1]: Caco-2 cell viability by MTS. Format: cell-based. The conditions noted are these: human; Caco-2 cells, 50 μM, 2 h of exposure, MTS; data not shown. As to the method: (§2) The colorectal adenocarcinoma cell line Caco-2 was purchased from American Tissue Type Culture Collection (Manassas, VA, USA) and cultured in Dulbecco’s modified Eagle’s medium (DMEM) (Thermo Fisher Scientific, Rodano, Milan, Italy) with 20% fetal bovine serum (FBS) (Thermo Fisher Scientific, Rodano, Milan, Italy) and 100 U/mL penicillin–streptomycin (Thermo Fisher Scientific, Rodano, Milan, Italy) in 5% CO2 at 37 °C. Cell viability was determined by MTS after 2 h of exposure to the aliphatic sulfonate CAIs at 50 µM concentration, as previously described.

The next data set concerns the target T3, hCA I (Homo sapiens, UniProt P00915).
T3 construct: made in house
The data set is described as follows: stopped flow CO2 hydrase assay, CA I. Format: biochemical. The conditions noted are these: mean from 3 different assays, errors ±5–10%. How it is done:
as §1

Another data set concerns the target T4, hCA IX (Homo sapiens, UniProt Q16790).
T4 construct: made in house
The data set is described as follows: stopped flow CO2 hydrase assay, CA IX. The following applies: for Selectivity index (SI) CA I/CA IX / Selectivity index (SI) CA II/CA IX: ratio between KI values; for Ki: stopped flow CO2 hydrase assay, mean from 3 different assays, errors ±5–10%. The format is biochemical. How it is done: as §1

The target in the next data set is T5, hCA IV (Homo sapiens, UniProt P22748).
T5 construct: made in house
T5 sequence (P22748 19-312): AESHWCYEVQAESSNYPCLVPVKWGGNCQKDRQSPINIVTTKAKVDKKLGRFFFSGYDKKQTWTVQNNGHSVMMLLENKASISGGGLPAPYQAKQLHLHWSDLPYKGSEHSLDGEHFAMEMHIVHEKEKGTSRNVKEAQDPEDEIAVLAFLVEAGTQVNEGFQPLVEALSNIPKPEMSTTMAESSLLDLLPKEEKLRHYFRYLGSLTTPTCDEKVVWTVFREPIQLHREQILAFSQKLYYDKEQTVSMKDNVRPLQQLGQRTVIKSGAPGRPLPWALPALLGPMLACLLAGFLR
The data set is described as follows: stopped flow CO2 hydrase assay, CA IV. The format is biochemical. The following applies: mean from 3 different assays, errors ±5–10%. As to the method:
as §1

The next data set relates to Caco-2 cells. Put plainly: Caco-2 cell viability by MTS. The format is cell-based. The following applies: 50 µM. How it is done:
as §2

Where only a bound is given, the exact number is not on record here.

Usually melting point stands for the temperature of the solid-liquid transition. As a reminder, the Ki is the dissociation constant of the complex between target and ligand, obtained from inhibition or displacement. The viability is a per cent measure of how many cells are alive, often set against a control. Read a low viability as a greater loss of cells. For orientation: cell viability means a read-out of living cells in per cent, often relative to untreated cells. Low values mean a greater loss of cells, high ones better survival.

T3 sequence (P00915 whole entry): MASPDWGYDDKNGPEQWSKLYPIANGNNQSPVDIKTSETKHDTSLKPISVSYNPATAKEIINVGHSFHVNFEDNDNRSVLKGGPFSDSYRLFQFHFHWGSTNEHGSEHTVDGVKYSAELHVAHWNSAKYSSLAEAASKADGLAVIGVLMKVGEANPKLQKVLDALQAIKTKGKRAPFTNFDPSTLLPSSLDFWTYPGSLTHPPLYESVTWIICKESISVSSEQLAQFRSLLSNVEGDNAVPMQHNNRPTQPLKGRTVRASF
T2 sequence (O43570 25-354): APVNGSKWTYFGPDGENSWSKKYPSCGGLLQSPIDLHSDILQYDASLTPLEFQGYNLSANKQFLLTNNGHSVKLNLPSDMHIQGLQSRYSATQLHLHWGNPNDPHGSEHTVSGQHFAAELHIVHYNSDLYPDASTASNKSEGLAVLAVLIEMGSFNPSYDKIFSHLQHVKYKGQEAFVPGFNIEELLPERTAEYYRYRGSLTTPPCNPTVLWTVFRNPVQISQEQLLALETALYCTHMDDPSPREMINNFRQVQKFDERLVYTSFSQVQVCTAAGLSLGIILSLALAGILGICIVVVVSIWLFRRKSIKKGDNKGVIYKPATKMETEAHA

Turning to `CC(=O)Nc1cc(S(N)(=O)=O)ccc1OCc1cn(CCCS(=O)(=O)[O-])nn1.[Na+]` [Compound 39, Sodium 3-(4-((2-acetamido-4-sulfamoylphenoxy)methyl)-1H-1,2,3-triazol-1-yl)propane-1-sulfonate], the melting point was above 300 °C. Moreover, on hCA II, the Ki came out at 63.4 nM. For the same compound, on hCA XII, the “Selectivity index (SI) CA I/CA XII” value is above 534, the “Selectivity index (SI) CA II/CA XII” value was found to be 3.4 and affinity was put at a Ki of 18.7 nM. In data set [1], this compound returned a viability at 2 h, 50 µM above 95%. Also, the inhibition constant (Ki) on hCA I was above 10000 nM. Moreover, at hCA IX, the “Selectivity index (SI) CA I/CA IX” value is above 41; the “Selectivity index (SI) CA II/CA IX” value was found to be 0.26; the affinity, expressed as Ki, was 242 nM. This compound also had a Ki at hCA IV of 244 nM.

For the compound “Sodium 3-(4-(4-sulfamoylphenyl)-1H-1,2,3-triazol-1-yl)butane-1-sulfonate [Compound 41]”, the inhibition constant (Ki) was 18.8 nM at hCA II; 43.1 nM at hCA XII; 150 nM at hCA I; 8.6 nM on hCA IX; 408 nM at hCA IV. On hCA XII, the “Selectivity index (SI) CA I/CA XII” value is given as 3.4. Further, the “Selectivity index (SI) CA II/CA XII” value at hCA XII came to 0.44. The compound also came in with a cell viability in the data set on Caco-2 cells above 95%. The “Selectivity index (SI) CA I/CA IX” value on hCA IX amounted to 17. The “Selectivity index (SI) CA II/CA IX” value at hCA IX stood at 2.2.

At hCA II, “Sodium 3-(4-(((4-sulfamoylphenyl)amino)methyl)-1H-1,2,3-triazol-1-yl)butane-1-sulfonate [Compound 43]” came in with an inhibition constant Ki of 364 nM. Moreover, on hCA XII, the “Selectivity index (SI) CA I/CA XII” value is 855, the “Selectivity index (SI) CA II/CA XII” value was found to be 107 and the Ki was 3.4 nM. In the data set on Caco-2 cells, this compound gave a cell viability above 95%. This compound came in with a Ki on hCA I of 2910 nM. In addition, on hCA IX, the “Selectivity index (SI) CA I/CA IX” value is 36, the “Selectivity index (SI) CA II/CA IX” value is on record as 4.5 and the inhibition constant Ki turned out to be 79.9 nM. On hCA IV, this compound registered a Ki of 883 nM.

Source of the values: paper PMC8745330, “Aromatic Sulfonamides including a Sulfonic Acid Tail: New Membrane Impermeant Carbonic Anhydrase Inhibitors for Targeting Selectively the Cancer-Associated Isoforms” (International Journal of Molecular Sciences, 2021).
